Some test systems named below: 786-0 renal; ACHN renal; BT-549 breast; COLO 205 colon; HOP-92 NSCLC; LOX IMVI melanoma; MCF7 breast; MDA-MB-231 breast; NCI-H522 lung; SR leukemia.
What all share (test): NCI anticancer screen, dose series, 48 h

TGI and GI50 data for 8 molecules are collected here from PubChem BioAssay (NCI).

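These data come from cells grown in 96-well plates and exposed to compound for 48 hours at five concentrations. GI50: concentration for 50% inhibition of growth. TGI marks complete inhibition of growth.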

For the molecule `C=C(C)C(=O)O[C@@H]1C/C(C)=C\[C@H](OC(C)=O)C[C@](C)(O)/C=C2/OC(=O)C(COC(C)=O)=C21`, the TGI was determined as 6.03 µM with 786-0 renal; 1.87 µM with ACHN renal; 3.91 µM with BT-549 breast; 2.37 µM with COLO 205 colon; 37.5 µM with HOP-92 NSCLC; 0.373 µM with LOX IMVI melanoma. In addition, the TGI in the test with MCF7 breast is above 36.5 µM; in the test with MDA-MB-231 breast, 2.63 µM; in the test on NCI-H522 lung, 0.539 µM.

Take `CC1=C(C)C2(O)C(=C(C)C1=O)/C(=C(/O)c1ccccc1)c1nc3ccccc3n12` (stereo not given): the GI50 in the test with 786-0 renal is 29.5 µM; with ACHN renal it was 16.4 µM; with BT-549 breast, 22.6 µM; with COLO 205 colon it was 17.2 µM; in the test on HOP-92 NSCLC it was 16.1 µM; with LOX IMVI melanoma it was 16.7 µM. Further, the GI50 with MDA-MB-231 breast is 15.4 µM; with NCI-H522 lung, 19.6 µM; in the test with SR leukemia it was 10900 nM. Also, the TGI worked out at 83.9 µM with 786-0 renal; 34.4 µM in the test on ACHN renal; 54.8 µM with BT-549 breast; 31.3 µM in the test on COLO 205 colon; 41.7 µM in the test with HOP-92 NSCLC; 34.6 µM in the test with LOX IMVI melanoma. Further, the values for the TGI with MDA-MB-231 breast, in the test on NCI-H522 lung and in the test on SR leukemia were 30 µM, 44.2 µM and 37.6 µM, respectively.

Take `COc1ccc(Cn2cc3c(c2-c2ccccc2)CCc2cnoc2-3)cc1N`: the GI50 is 0.602 µM with 786-0 renal; 1.11 µM in the test on ACHN renal; 3.01 µM with BT-549 breast; 1.32 µM in the test on COLO 205 colon; 0.766 µM in the test on LOX IMVI melanoma; 50 nM in the test with MCF7 breast. The GI50 in the test on MDA-MB-231 breast was 1.03 µM; with NCI-H522 lung, 0.027 µM; with SR leukemia, 52.8 nM. Moreover, the TGI in the test with 786-0 renal is above 100 µM; in the test with ACHN renal, above 100 µM; in the test on BT-549 breast, above 100 µM; in the test with COLO 205 colon it was 4.08 µM; in the test with LOX IMVI melanoma it was above 100 µM; in the test on MCF7 breast, above 100 µM. In addition, the TGI in the test with MDA-MB-231 breast is above 100 µM; in the test on NCI-H522 lung it was 0.339 µM; in the test with SR leukemia it was 4.25 µM.

With `Cc1ccc(NCCN(C)C)c2c(=O)c3ccccc3sc12`, the GI50 with 786-0 renal is 1.58 µM; with ACHN renal, 1.68 µM; with BT-549 breast, 3.89 µM; in the test on COLO 205 colon, 1.29 µM; with HOP-92 NSCLC, 1.04 µM; in the test with LOX IMVI melanoma, 1.61 µM. Moreover, the GI50 in the test on MCF7 breast is 1470 nM; in the test on MDA-MB-231 breast, 1.69 µM; in the test on NCI-H522 lung, 1.89 µM. For the same molecule, the TGI with 786-0 renal was determined as 3.54 µM; in the test with ACHN renal, 3.53 µM; with BT-549 breast, 15.5 µM; with COLO 205 colon it was 2.65 µM; with HOP-92 NSCLC, 4.41 µM; in the test on LOX IMVI melanoma, 3.45 µM. In addition, the TGI in the test on MCF7 breast amounted to 2.95 µM; in the test on MDA-MB-231 breast, 3.73 µM; in the test on NCI-H522 lung it was 5.38 µM.

Turning to `NC(=Nc1ccc(N)cc1)C(N)=Nc1ccc(N)cc1`, the GI50 was above 100 µM in the test on 786-0 renal; 37.5 µM with ACHN renal; above 100 µM with BT-549 breast; 43.5 µM in the test with COLO 205 colon; above 100 µM with HOP-92 NSCLC; above 100 µM in the test on LOX IMVI melanoma. The GI50 in the test with MCF7 breast is 82800 nM; in the test with MDA-MB-231 breast, 77.6 µM; with NCI-H522 lung, above 100 µM. In addition, the TGI with 786-0 renal, in the test with ACHN renal, in the test on BT-549 breast, with COLO 205 colon, with HOP-92 NSCLC and in the test with LOX IMVI melanoma was above 100 µM each time. Besides, the TGI in the test on MCF7 breast, in the test on MDA-MB-231 breast and with NCI-H522 lung was above 100 µM each time.

As for `O=C(c1ccccc1)n1c(-c2ccccc2)cs/c1=N\S(=O)(=O)c1ccc(N2N=C3c4ccccc4CC3C2c2cccs2)cc1` (stereo not given), the GI50 in the test with 786-0 renal was 21.8 µM; in the test on ACHN renal it was 43.8 µM; in the test with BT-549 breast, 67.9 µM; in the test with COLO 205 colon, 98.1 µM; in the test with HOP-92 NSCLC, above 100 µM; with LOX IMVI melanoma, 30.7 µM. The GI50 with MCF7 breast is above 100000 nM; in the test on MDA-MB-231 breast it was 41.3 µM; in the test with NCI-H522 lung it was 32.7 µM. The TGI in the test on 786-0 renal is 96.7 µM; in the test with ACHN renal, above 100 µM; in the test with BT-549 breast, above 100 µM; in the test on COLO 205 colon, above 100 µM; with HOP-92 NSCLC it was above 100 µM; with LOX IMVI melanoma it was above 100 µM. In addition, the TGI with MCF7 breast, in the test with MDA-MB-231 breast and with NCI-H522 lung was above 100 µM each time.

`COc1cc(C2C3=C(COC3=O)N(CCO)c3cc4c(cc32)OCO4)cc(OC)c1O` (stereo not given): the GI50 in the test with 786-0 renal is 2.02 µM; with ACHN renal, above 13.5 µM; with BT-549 breast, 2.28 µM; in the test with COLO 205 colon it was 1.48 µM; in the test on LOX IMVI melanoma, 2.5 µM; in the test on MCF7 breast it was 1190 nM. Also, the GI50 with MDA-MB-231 breast was 6.07 µM; with NCI-H522 lung, 0.0267 µM; with SR leukemia, 611 nM. Besides, the TGI in the test with 786-0 renal was above 50 µM; in the test on ACHN renal, above 50 µM; with BT-549 breast, above 34.3 µM; in the test with COLO 205 colon it was 4.07 µM; in the test with LOX IMVI melanoma, above 50 µM; in the test on MCF7 breast, above 50 µM. For the same molecule, the TGI was 46.2 µM in the test on MDA-MB-231 breast, 0.289 µM in the test with NCI-H522 lung and above 11.9 µM in the test with SR leukemia.

For `COc1ccc(C(CC(=O)c2ccccc2)C(C(=O)c2ccccc2)C(c2ccc(OC)cc2)C2C(=O)NC(=S)NC2=O)cc1` (stereo not given), the GI50 is 21.7 µM in the test on 786-0 renal; 12.3 µM in the test on ACHN renal; 12.8 µM in the test on BT-549 breast; 8.86 µM in the test on COLO 205 colon; 3.1 µM in the test on HOP-92 NSCLC; 8.18 µM with LOX IMVI melanoma. In addition, the GI50 is 16100 nM in the test with MCF7 breast, 2.16 µM in the test with MDA-MB-231 breast and 11.9 µM in the test on NCI-H522 lung. Further, the TGI in the test with 786-0 renal was above 100 µM; with ACHN renal it was 50.9 µM; with BT-549 breast, 49.8 µM; in the test with COLO 205 colon, above 100 µM; in the test with HOP-92 NSCLC it was 43.1 µM; in the test on LOX IMVI melanoma, 20.6 µM. Further, the TGI in the test on MCF7 breast is above 100 µM; with MDA-MB-231 breast, 10.6 µM; in the test on NCI-H522 lung, 35.1 µM.
